From patent US20260083815A1, “COMPOSITION FOR INHIBITING TOXICITY OF NANOPARTICLES AND ENVIRONMENTALLY-DERIVED FINE PARTICLES” (AJOU UNIVERSITY INDUSTRY-ACADEMIC COOPERATION FOUNDATION, priority 2019, published 2026)
Like-named read-outs stand apart in the source and are kept apart here.

Key:
microglia [1] = conditions: 24 hours
Experimental: After the cells were suspended, the number of cells was measured and adjusted to the same cell number. The cells became luminescent according to the amount of ATP using a luciferin-based ATP luminescence measurement kit (Promega, USA), the luminescence degree was measured by a luminometer (LMaxII384; Molecular Devices, USA), and ChemiDoc™ Touch Gel Imaging System (Bio-Rad) was used for imaging.

microglia [2] = conditions: 0.1 μg/μl of each of 11 nanoparticles/particulate matters, 24 hours, formazan absorbance at 490 nm
Experimental: Microglia cultured by the cell culture method of Example 1 were treated with 0.1 μg/μl of MNPs@SiO2(RITC) (average diameter of 50 nm), silica nanoparticles (SiO2, average diameter of 50 nm), silver nanoparticles (Ag, average diameter of 20 nm), gold nanoparticles (Au, average diameter of 10 nm), quantum dot nanoparticles (CdSe, average diameter of 10 nm), polystyrene microplastics (PS, average diameter of 2 μm and 100 nm), urban particulate matters (UPM, NIST 1648A), silica nanoparticles (SiO2, average diameter of 30 nm), titanium oxide nanoparticles (TiO2, average diameter of 40 nm), and carbon nanotubes (MWCNT, average diameter of 25 nm) for 24 hours, a kit (CellTilter 96 Aqueous One Solution Cell Proliferation Assay, Promega Corporation, Madison, WI) for analyzing cell viability based on the activity of succinic dehydrogenase was mixed, and the degree of formazan formation in accordance with the cell viability was measured with absorbance at 490 nm.

microglia [3] = conditions: 24 hours; remark: listed apart in the source
Experimental: Microglia cultured by the cell culture method of Example 1 was treated with 0.1 μg/μl of MNPs@SiO2(RITC) (average diameter of 50 nm), silica nanoparticles (SiO2, average diameter of 50 nm), silver nanoparticles (Ag, average diameter of 20 nm), gold nanoparticles (Au, average diameter of 10 nm), quantum dot nanoparticles (CdSe, average diameter of 10 nm), polystyrene microplastics (PS, average diameter of 2 μm and 100 nm), urban particulate matters (UPM, NIST 1648A), silica nanoparticles (SiO2, average diameter of 30 nm), titanium oxide nanoparticles (TiO2, average diameter of 40 nm), and carbon nanotubes (MWCNT, average diameter of 25 nm) for 24 hours, and then images were taken using fluorescence and optical microscopes (Axio Vert 200M fluorescence microscopy, Zeiss, Jena, Germany). Fluorescence of MNPs@SiO2(RITC) (average diameter of 50 nm) and quantum dot nanoparticles (CdSe, average diameter of 10 nm) which are fluorescent were photographed also.

O=C(O)CC(O)(CC(=O)O)C(=O)O [citric acid]
ATP reduction induced by MNPs@SiO2(RITC) (microglia [1]; 0.01 or 0.1 μg/μl MNPs@SiO2(RITC), luminescence): inhibited
ATP increase compared to group treated only with MNPs@SiO2(RITC) (microglia [1]; co-treated with 0.1 μg/μl MNPs@SiO2(RITC) (50 nm)): 30%
reduction in cell viability due to nanoparticles and particulate matters (microglia [2]): mitigated
decrease in the cell number due to particles (microglia [3]; 0.1 μg/μl MNPs@SiO2(RITC)): mitigated
decrease in the cell number due to particles (microglia [3]; 0.1 μg/μl gold nanoparticles (Au, 10 nm)): mitigated
decrease in the cell number due to particles (microglia [3]; 0.1 μg/μl polystyrene microplastics (PS, 2 μm)): mitigated
decrease in the cell number due to particles (microglia [3]; 0.1 μg/μl polystyrene microplastics (PS, 100 nm)): mitigated
decrease in the cell number due to particles (microglia [3]; 0.1 μg/μl quantum dot nanoparticles (CdSe, 10 nm)): mitigated
decrease in the cell number due to particles (microglia [3]; 0.1 μg/μl silica carbon nanotubes (MWCNT, 25 nm)): mitigated
decrease in the cell number due to particles (microglia [3]; 0.1 μg/μl silica nanoparticles (SiO2, 30 nm)): mitigated
decrease in the cell number due to particles (microglia [3]; 0.1 μg/μl silica nanoparticles (SiO2, 50 nm)): mitigated
decrease in the cell number due to particles (microglia [3]; 0.1 μg/μl silver nanoparticles (Ag, 20 nm)): mitigated
decrease in the cell number due to particles (microglia [3]; 0.1 μg/μl titanium oxide nanoparticles (TiO2, 40 nm)): mitigated
decrease in the cell number due to particles (microglia [3]; 0.1 μg/μl urban particulate matters (UPM, NIST 1648A)): mitigated
